Laboratory results from article PMC2527810, “[^18F]FDG and [^18F]FLT uptake in human breast cancer cells in relation to the effects of chemotherapy: an in vitro study” (British Journal of Cancer, 2008).

Legend:
MDA MB231 cells [1] = assay: Cellular FDG uptake after drug incubation; type: cell-based, human; settings: IC50 concentration
Protocol: (§1) Cells were plated in six identical 24-well plates at 75 000 cells per ml. […] Control cells were plated in a concentration of 45 000 cells per ml, 4 days before tracer uptake. Cell culture medium was replaced 4 h before adding PET tracers. For FDG plates, medium was replaced with medium without glucose (+IC50 drugs concentration), as glucose competes with FDG uptake. For FLT plates, medium was replaced with medium without L-glutamine (+IC50 drugs concentration). The presence of L-glutamine in the culture medium may reduce FLT uptake, as glutamine is a source of thymidine monophosphate competing with FLT uptake through the de novo pathway.
(§2) One MBq per well FDG or FLT was added to the cells and incubated for 60 min at 37°C. After removal of excess tracer, cellular tracer uptake was determined with an ECAT Exact HR+ PET scanner (Siemens/CTI, Knoxville, TN, USA). Images were analysed using CAPP software (version 7.2, CTI/Siemens, Knoxville, TN, USA). Regions of interest (ROI) were drawn manually in a plane with visible tracer uptake. Next, ROIs were copied to all other planes and total activity per well was calculated and plotted against exact number of cells. Tracer uptake was also determined in an identical plate using the single-well gamma counter. Tracer uptake was corrected for the number of cells.

MDA MB231 cells [2] = assay: Cytotoxicity by sulforhodamine (SRB) assay; type: cell-based; settings: Homo sapiens, MDA-MB-231, 72 h drug incubation, read-out: IC50 (50% reduction in growth)
Protocol: The human breast cancer cell line MDA MB231 (ATCC no. HTB-26) and CEM leukaemia cells (CEM wild type and TK-deficient CEM/TK-) were cultured in RPMI 1640 supplemented with 10% foetal bovine serum and 1% penicillin/streptomycin (P/S), at 5% CO2 in a humidified atmosphere at 37°C. Cell counting was performed with a Casy cell counter (Schärfe System GmbH, Reutlingen, Germany).
Cytotoxicity to 5-FU (Sigma Chemical Co., MO, St Louis, USA), doxorubicin (doxorubicin hydrochloride, Pfizer, Cappelle a/d IJssel, The Netherlands) and paclitaxel (Sigma Chemical Co.) was determined by sulforhodamine (SRB) assay. Briefly, cells were plated in 96-well plates and after 24 h, drugs were added at various concentrations, incubated for 72 h and the SRB assay was performed as described previously ([de Bruin et al, 2003]). The IC50 is the concentration resulting in 50% reduction in growth compared with untreated control cells.

MDA MB231 cells [3] = assay: Cell cycle analysis after exposure to IC50 drug concentrations; type: cell-based, human; settings: for cell cycle effect (in words): at IC50 concentrations
Protocol: For cell cycle analysis, cells were exposed to IC50 concentrations of the various drugs for 4, 24, 48 or 72 h, fixed in 70% ethanol (1 × 10^6 cells per ml) and stored at 4°C until analysis, as described previously ([Temmink et al, 2007]) according to a slightly modified protocol.

[4] = tested on: TK-1 protein levels of MDA MB231 cells; assay: TK-1 protein levels by Western blot; settings: for increase in TK-1 levels compared with untreated cells: abstract, time not stated
[5] = tested on: Thymidine kinase (TK) activity in MDA MB231 breast cancer cells; assay: TK enzyme activity (FLT phosphorylation) in lysates of drug-treated cells; type: cell-based, human; settings: IC50 concentration; for TK activity compared with untreated cells (in words): 48 and 72 h, effects minor
Protocol: . Enzyme activity was also analysed in CEM cells and in the corresponding TK-1-deficient subtype to assess whether FLT phosphorylation only occurs in the presence of sufficient cytosolic TK-1.
Cell pellets were suspended in 50 mM Tris/1 mM EDTA (pH 7.4) and sonificated on ice. Lysates were spun down and supernatant diluted 1 : 8 in 50 mM Tris/1 mM EDTA (pH 7.4).
3′-deoxy-3′-[^18F]fluorothymidine was diluted with 50 mM Tris/1 mM EDTA (pH 7.4) and 1 : 1 mixed with 20 mM ATP, 10 mM MgCl2, resulting in an FLT concentration of about 60 MBq ml^−1 (6.32–18.89 pmol per sample). […] .
The assay was optimised for protein concentration and incubation times. Diluted cell lysates or purified TK-2 (kindly provided by A. Karlsson, Karolinska Institute, Stockholm, Sweden) were incubated with the FLT mixture for 15 min at 37°C and the reaction was stopped by heating the samples at 95°C for 5 min. Substrate (FLT) and product (FLT-phosphate) were separated by TLC and radioactivity was measured in a single-well gamma counter (Wallac1480 Wizard, Perkin Elmer Lifescience, MA, USA). Protein concentrations were measured in a Bio-Rad Bradford protein assay (Bio-Rad Laboratories, Hercules, CA, USA).

MDA MB231 cells [6] = assay: Cellular FLT uptake after drug incubation; type: cell-based, human; settings: IC50 concentration
Protocol: as §1, §2

[7] = 48 h incubation, IC50 concentration

Compound | Mean (±s.d.) change in FDG uptake compared with untreated cells (set to 100%) (MDA MB231 cells [1]; 4 h) | Mean (±s.d.) change in FDG uptake compared with untreated cells (set to 100%) (MDA MB231 cells [1]; 24 h) | Mean (±s.d.) change in FDG uptake compared with untreated cells (set to 100%) (MDA MB231 cells [1]; 48 h) | Mean (±s.d.) change in FDG uptake compared with untreated cells (set to 100%) (MDA MB231 cells [1]; 72 h) | IC50 (MDA MB231 cells [2]) | cell cycle effect (in words) (MDA MB231 cells [3]) | Mean (±s.d.) change in TK-1 protein levels compared with untreated cells (set to 100%) ([4]; 4 h, IC50 concentration) | Mean (±s.d.) change in TK-1 protein levels compared with untreated cells (set to 100%) ([4]; 24 h, IC50 concentration) | Mean (±s.d.) change in TK-1 protein levels compared with untreated cells (set to 100%) ([4]; 48 h, IC50 concentration) | Mean (±s.d.) change in TK-1 protein levels compared with untreated cells (set to 100%) ([4]; 72 h, IC50 concentration) | increase in TK-1 levels compared with untreated cells [4] | increase in TK-1 levels ([4]; at 48 h, IC50 concentration) | Mean (±s.d.) change in FLT uptake compared with untreated cells (set to 100%) (MDA MB231 cells [6]; 4 h) | Mean (±s.d.) change in FLT uptake compared with untreated cells (set to 100%) (MDA MB231 cells [6]; 24 h) | Mean (±s.d.) change in FLT uptake compared with untreated cells (set to 100%) (MDA MB231 cells [6]; 48 h) | Mean (±s.d.) change in FLT uptake compared with untreated cells (set to 100%) (MDA MB231 cells [6]; 72 h) | increase in FLT uptake (MDA MB231 cells [6]; 72 h) | TK activity compared with untreated cells (in words) [5] | also measured
COc1cccc2c1C(=O)c1c(O)c3c(c(O)c1C2=O)C[C@@](O)(C(=O)CO)C[C@@H]3O[C@H]1C[C@H](N)[C@H](O)[C@H](C)O1 [doxorubicin] | 57±35% | 124±59% | 133±45% | 171±0% | 200 nM | G2/M accumulation | 64±6% | 130±78% | 177±71% | 473±348% | > 300 | two-fold | 123±83% | 137±52% | 494±232% | 273±209% | 173% |  | increase in FDG uptake (MDA MB231 cells [1]; 72 h): 71%; increase in FDG uptake (MDA MB231 cells [1]; at 24, 48 and 72 h): > 24%; decrease in G1 phase (MDA MB231 cells [3]; [7]): 90%; decrease in S phase (MDA MB231 cells [3]; [7]): 70%; accumulation in the G2/M phase (MDA MB231 cells [3]; 48 h incubation, IC50 concentration, vs control cells): two-fold; increase in TK activity compared with untreated cells ([5]; after 24 h): more than three-fold; increase in FLT uptake (MDA MB231 cells [6]; irrespective of incubation time): > 24%
O=c1[nH]cc(F)c(=O)[nH]1 [5-FU, 5-fluorouracil] | 67±2% | 70±13% | 69±21% | 45±20% | 5000 nM | accumulation in the G1 phase | 163±1% | 122±38% | 184±53% | 443±58% | > 300 | two-fold | 99±45% | 113±7% | 101±8% | 46±32% |  | increased TK activity | decrease in FDG uptake (MDA MB231 cells [1]; 72 h, listed as 5-fluorouracil): approximately 50%; decrease in FLT uptake (MDA MB231 cells [6]; 72 h): 54%; decrease in FLT uptake (MDA MB231 cells [6]; 72 h, listed as 5-fluorouracil): approximately 50%
CC(=O)O[C@H]1C(=O)[C@@]2(C)[C@H]([C@H](OC(=O)c3ccccc3)[C@]3(O)C[C@H](OC(=O)[C@H](O)[C@@H](NC(=O)c4ccccc4)c4ccccc4)C(C)=C1C3(C)C)[C@]1(OC(C)=O)CO[C@@H]1C[C@@H]2O [paclitaxel] | 105±41% | 125±99% | 207±163% | 228±182% | 2.5 nM | G2/M accumulation | 103±6% | 62±4% | 54±16% | 52±32% |  |  | 108±2% | 112±54% | 118±14% | 166±18% | 66% | increased TK activity | increase in FDG uptake (MDA MB231 cells [1]; after 48 h (at 48 and 72 h)): > 100%; increase in G2/M phase (MDA MB231 cells [3]; 4 h drug incubation, IC50 concentration): 1.2 fold; decrease in TK-1 levels ([4]; at 48 h, IC50 concentration): > 40%; FLT uptake change (in words) (MDA MB231 cells [6]; abstract): hardly changed
